The IC50 is the concentration needed to halve the response being measured. Higher therefore signals a need for much substance.

The target of this assay is mushroom tyrosinase. As to the kind of experiment: L-DOPA oxidation (dopachrome, […] nm) inhibition assay with Lineweaver-Burk kinetics. In kind it is biochemical.

Compound `O=C1C(O)Oc2ccccc2N1O` (centres unmarked) [compound 1, 2,4-dihydroxy-1,4-benzoxazin-3-one] showed an IC50 of 27.2 ± 3 µM. `C[C@@H]1O[C@@H](O[C@@H]2[C@@H](O)[C@H](OCCc3ccc(O)c(O)c3)O[C@H](CO)[C@H]2OC(=O)/C=C/c2ccc(O)c(O)c2)[C@H](O)[C@H](O)[C@H]1O` [compound 8, 2-(3,4-dihydroxyphenyl)ethyl-1-O-α-L-rhamnopyranosyl-(1→3)-(4-O-Ε-caffeoyl)-β-D-glucopyranoside]: inhibition was half-maximal at 22.7 ± 2.83 µM (IC50).

Values taken from article PMC9653606, “Synergistic Effect of DIBOA and Verbascoside from Acanthus mollis Leaf on Tyrosinase Inhibition” (International Journal of Molecular Sciences, 2022).
